Measured values published in US10316035B2, “Triazolopyridine inhibitors of myeloperoxidase” (BRISTOL-MYERS SQUIBB COMPANY, priority 2015, dated 2019).

The molecules below were run against T1, myeloperoxidase (MPO) (Homo sapiens, UniProt P05164) (assay: MPO peroxidation assay (Amplex Red assay)). Details: not given.
T1 sequence (P05164 49-745): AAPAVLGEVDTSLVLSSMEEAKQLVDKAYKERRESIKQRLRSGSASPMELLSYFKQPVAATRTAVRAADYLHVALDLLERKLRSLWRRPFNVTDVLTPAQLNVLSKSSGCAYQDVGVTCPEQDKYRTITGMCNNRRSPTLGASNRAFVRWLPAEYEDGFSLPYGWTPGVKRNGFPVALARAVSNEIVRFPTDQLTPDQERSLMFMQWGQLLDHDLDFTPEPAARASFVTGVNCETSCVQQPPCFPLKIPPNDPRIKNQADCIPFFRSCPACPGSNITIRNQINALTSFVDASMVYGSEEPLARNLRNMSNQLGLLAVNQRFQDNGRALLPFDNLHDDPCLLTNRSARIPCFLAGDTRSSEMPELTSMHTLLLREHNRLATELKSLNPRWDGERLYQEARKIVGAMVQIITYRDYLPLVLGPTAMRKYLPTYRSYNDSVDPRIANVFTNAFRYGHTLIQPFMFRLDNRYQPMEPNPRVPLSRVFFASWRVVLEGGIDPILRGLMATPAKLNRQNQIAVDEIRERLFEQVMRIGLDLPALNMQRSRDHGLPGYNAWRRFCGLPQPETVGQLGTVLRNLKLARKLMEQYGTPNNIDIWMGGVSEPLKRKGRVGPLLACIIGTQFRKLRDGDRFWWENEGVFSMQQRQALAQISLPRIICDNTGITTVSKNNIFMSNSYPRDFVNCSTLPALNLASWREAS
Format: biochemical
Protocol: MPO Peroxidation Assay (Amplex Red Assay)
MPO peroxidation activity was measured in 100 mM KPi (pH 7.4) by utilizing the non-fluorescent reagent Amplex Red (Invitrogen catalog # A12222) which can be oxidized to the highly fluorescent resorufin. Amplex Red is oxidized by the peroxidase action of MPO to resorufin. Reactions were carried out in 50 μL total volume by adding a 25 μL mixture of 200 pM myeloperoxidase and 40 nM H2O2(Sigma #349887) to 100 nL inhibitor in 100% DMSO in a 384 well Perkin Elmer Optiplate. Enzyme and compound were preincubated for ten minutes at room temperature.
After the ten minute preincubation, 25 μL of an Amplex Red mixture containing 200 μM Amplex Red and 10 mM H2O2 was added to the plate. Kinetic determinations were carried out immediately on a Perkin Elmer Envision (15 minute kinetic read, Ex: 535 nm, Em: 590 nm).
IC50 values were calculated by determining the slope of the linear portion of the kinetic trace ([…]), and using that calculated slope to determine % inhibition occurring at each concentration of inhibitor using the following equation:
[formula] where A=minimal Y value (activity level of inhibited sample), B=maximal Y value (activity level of uninhibited sample), C=Log IC50, D=Hill Slope, x=concentration of inhibitor. MPO Chlorination Assay (APF Assay)

IC50 | SMILES
0.001 to 0.1 µM | Nc1cc(OCc2cccc(-c3cccc(F)c3)c2)c2nn[nH]c2n1 [Example 91, 7-((3′-Fluorobiphenyl-3-yl)methoxy)-3H-[1,2,3]triazolo[4,5-b]pyridin-5-amine]
0.001 to 0.1 µM | Nc1cc(OCc2cccc(-c3ccccc3F)c2)c2nn[nH]c2n1 [Example 96, 7-((2′-Fluorobiphenyl-3-yl)methoxy)-3H-[1,2,3]triazolo[4,5-b]pyridin-5-amine]

Same assay, conditions: MPO peroxidation, potency range class; read-out: Amplex Red IC50

SMILES | IC50
Cc1ccn(-c2cccc(COc3cc(N)nc4[nH]nnc34)c2)n1 [Example 85, 7-(3-(3-Methyl-1H-pyrazol-1-yl)benzyloxy)-3H-[1,2,3]triazolo[4,5-b]pyridin-5-amine] | 0.101 to 0.999 µM
COc1ccc(-n2cnc(C)n2)cc1COc1cc(N)nc2[nH]nnc12 [Example 87, 7-(2-Methoxy-5-(3-methyl-1H-1,2,4-triazol-1-yl)benzyloxy)-3H-[1,2,3]triazolo[4,5-b]pyridin-5-amine] | 1 to 10 µM
Nc1cc(OCc2cccc(-c3ccc(Cl)cc3)c2)c2nn[nH]c2n1 [Example 97, 7-((4′-Chlorobiphenyl-3-yl)methoxy)-3H-[1,2,3]triazolo[4,5-b]pyridin-5-amine] | 0.101 to 0.999 µM
CN1CCN(c2ccc(-c3cccc(COc4cc(N)nc5[nH]nnc45)c3)cc2)CC1 [Example 99, 7-((4′-(4-Methylpiperazin-1-yl)biphenyl-3-yl)methoxy)-3H-[1,2,3]triazolo[4,5-b]pyridin-5-amine] | 0.101 to 0.999 µM
Nc1cc(OCc2cccc(-c3ccc(-c4ccccc4)cc3)c2)c2nn[nH]c2n1 [Example 102, 7-((4′-Phenylbiphenyl-3-yl)methoxy)-3H-[1,2,3]triazolo[4,5-b]pyridin-5-amine] | 0.101 to 0.999 µM
Nc1cc(OCc2cccc(-c3ccc(C(=O)Nc4ccccc4)cc3)c2)c2nn[nH]c2n1 [Example 104, 3′-((5-Amino-3H-[1,2,3]triazolo[4,5-b]pyridin-7-yloxy)methyl)-N-phenylbiphenyl-4-carboxamide] | 0.101 to 0.999 µM
CCN(C)C(=O)c1ccc(-c2ccc(COc3cc(N)nc4[nH]nnc34)cc2)cc1F [Example 107, 4′-((5-Amino-3H-[1,2,3]triazolo[4,5-b]pyridin-7-yloxy)methyl)-N-ethyl-3-fluoro-N-methylbiphenyl-4-carboxamide] | 0.101 to 0.999 µM
COc1ccc(-c2ccc(COc3cc(N)nc4[nH]nnc34)cc2)cc1F [Example 108, 7-((3′-Fluoro-4′-methoxybiphenyl-4-yl)methoxy)-3H-[1,2,3]triazolo[4,5-b]pyridin-5-amine] | 0.101 to 0.999 µM
Nc1cc(OCc2ccc(-c3ccccc3Cl)cc2)c2nn[nH]c2n1 [Example 109, 7-((2′-Chlorobiphenyl-4-yl)methoxy)-3H-[1,2,3]triazolo[4,5-b]pyridin-5-amine] | 0.101 to 0.999 µM
N#Cc1cccc(-c2ccc(COc3cc(N)nc4[nH]nnc34)cc2)c1 [Example 110, 4′-((5-Amino-3H-[1,2,3]triazolo[4,5-b]pyridin-7-yloxy)methyl)biphenyl-3-carbonitrile] | 1 to 10 µM
Nc1cc(OCc2ccc(-c3cccc(Cl)c3)cc2)c2nn[nH]c2n1 [Example 111, 7-((3′-Chlorobiphenyl-4-yl)methoxy)-3H-[1,2,3]triazolo[4,5-b]pyridin-5-amine] | 1 to 10 µM
COc1cccc(-c2ccc(COc3cc(N)nc4[nH]nnc34)cc2)c1 [Example 112, 7-((3′-Methoxybiphenyl-4-yl)methoxy)-3H-[1,2,3]triazolo[4,5-b]pyridin-5-amine] | 0.101 to 0.999 µM

Other lines, results leading:

IC50 | SMILES
0.001 to 0.1 µM | CC(C)Cn1cc(-c2ccc(F)c(COc3cc(N)nc4[nH]nnc34)c2)cn1 [Example 82, 7-(2-Fluoro-5-(1-isobutyl-1H-pyrazol-4-yl)benzyloxy)-3H-[1,2,3]triazolo[4,5-b]pyridin-5-amine]
0.001 to 0.1 µM | COc1ccc(-n2cncn2)cc1COc1cc(N)nc2[nH]nnc12 [Example 83, 7-(2-Methoxy-5-(1H-1,2,4-triazol-1-yl)benzyloxy)-3H-[1,2,3]triazolo[4,5-b]pyridin-5-amine]
0.101 to 0.999 µM | Cc1cn(-c2cccc(COc3cc(N)nc4[nH]nnc34)c2)cn1 [Example 84, 7-(3-(4-Methyl-1H-imidazol-1-yl)benzyloxy)-3H-[1,2,3]triazolo[4,5-b]pyridin-5-amine]
0.001 to 0.1 µM | Cc1c(COc2cc(N)nc3[nH]nnc23)cccc1-n1cncn1 [Example 86, 7-(2-Methyl-3-(1H-1,2,4-triazol-1-yl)benzyloxy)-3H-[1,2,3]triazolo[4,5-b]pyridin-5-amine]
0.001 to 0.1 µM | CCOc1ccc(Cl)cc1COc1cc(N)nc2[nH]nnc12 [Example 88, 7-(5-Chloro-2-ethoxybenzyloxy)-3H-[1,2,3]triazolo[4,5-b]pyridin-5-amine]
0.001 to 0.1 µM | Nc1cc(OCc2cc(Cl)ccc2OCC2CCCO2)c2nn[nH]c2n1 (stereo not shown) [Example 89, 7-(5-Chloro-2-((tetrahydrofuran-2-yl)methoxy)benzyloxy)-3H-[1,2,3]triazolo[4,5-b]pyridin-5-amine]
0.001 to 0.1 µM | Nc1cc(OCC2CCC(c3ccccc3)CC2)c2nn[nH]c2n1 (stereo not shown) [Example 90, 7-((4-Phenylcyclohexyl)methoxy)-3H-[1,2,3]triazolo[4,5-b]pyridin-5-amine]
0.001 to 0.1 µM | N#Cc1cccc(-c2cccc(COc3cc(N)nc4[nH]nnc34)c2)c1 [Example 92, 3′-((5-Amino-3H-[1,2,3]triazolo[4,5-b]pyridin-7-yloxy)methyl)biphenyl-3-carbonitrile]
0.001 to 0.1 µM | Nc1cc(OCc2cccc(-c3ccccc3Cl)c2)c2nn[nH]c2n1 [Example 93, 7-((2′-Chlorobiphenyl-3-yl)methoxy)-3H-[1,2,3]triazolo[4,5-b]pyridin-5-amine]
0.001 to 0.1 µM | Nc1cc(OCc2cccc(-c3ccc(F)cc3)c2)c2nn[nH]c2n1 [Example 95, 7-((4′-Fluorobiphenyl-3-yl)methoxy)-3H-[1,2,3]triazolo[4,5-b]pyridin-5-amine]
0.001 to 0.1 µM | Nc1cc(OCc2cccc(-c3ccc(-c4ccn[nH]4)cc3)c2)c2nn[nH]c2n1 [Example 98, 7-((4′-(1H-Pyrazol-5-yl)biphenyl-3-yl)methoxy)-3H-[1,2,3]triazolo[4,5-b]pyridin-5-amine]
0.001 to 0.1 µM | Nc1cc(OCc2cccc(-c3ccc(NC(=O)c4ccccc4)cc3)c2)c2nn[nH]c2n1 [Example 100, N-(3′-((5-Amino-3H-[1,2,3]triazolo[4,5-b]pyridin-7-yloxy)methyl)biphenyl-4-yl)benzamide]
0.001 to 0.1 µM | N#Cc1ccc(-c2cccc(COc3cc(N)nc4[nH]nnc34)c2)cc1 [Example 101, 3′-((5-Amino-3H-[1,2,3]triazolo[4,5-b]pyridin-7-yloxy)methyl)biphenyl-4-carbonitrile]
0.001 to 0.1 µM | Nc1cc(OCc2cccc(-c3cccnc3)c2)c2nn[nH]c2n1 [Example 103, 7-(3-(Pyridin-3-yl)benzyloxy)-3H-[1,2,3]triazolo[4,5-b]pyridin-5-amine]
0.001 to 0.1 µM | COc1ccc(-c2cccc(COc3cc(N)nc4[nH]nnc34)c2)cc1F [Example 105, 7-((3′-Fluoro-4′-methoxybiphenyl-3-yl)methoxy)-3H-[1,2,3]triazolo[4,5-b]pyridin-5-amine]
0.001 to 0.1 µM | Nc1cc(OCc2ccc(Br)cc2)c2nn[nH]c2n1 [Example 106, 7-(4-Bromobenzyloxy)-3H-[1,2,3]triazolo[4,5-b]pyridin-5-amine]
0.001 to 0.1 µM | COc1cccc(-c2cccc(COc3cc(N)nc4[nH]nnc34)c2)c1 [Example 113, 7-((3′-Methoxybiphenyl-3-yl)methoxy)-3H-[1,2,3]triazolo[4,5-b]pyridin-5-amine]
